Assay results from PubChem BioAssay (NCI).
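Each compound was tested at five concentrations against cells in 96-well plates for 48 hours. The concentration for full growth arrest is given as TGI.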

Assays:
Experiment in all cases: DTP human tumour cell line panel, 48 h
786-0 renal = test system: 786-0 renal
A498 renal = test system: A498 renal
A549 NSCLC = test system: A549 NSCLC
ACHN renal = test system: ACHN renal
BT-549 breast = test system: BT-549 breast
CAKI-1 renal = test system: CAKI-1 renal
CCRF-CEM leukemia = test system: CCRF-CEM leukemia
COLO 205 colon = test system: COLO 205 colon
DU-145 prostate = test system: DU-145 prostate
EKVX NSCLC = test system: EKVX NSCLC
HCC-2998 colon = test system: HCC-2998 colon
HCT-116 colon = test system: HCT-116 colon
HCT-15 colon = test system: HCT-15 colon
HL-60(TB) leukemia = test system: HL-60(TB) leukemia
HOP-62 NSCLC = test system: HOP-62 NSCLC
HOP-92 NSCLC = test system: HOP-92 NSCLC
HS 578T breast = test system: HS 578T breast
HT29 colon = test system: HT29 colon
K-562 leukemia = test system: K-562 leukemia
KM12 colon = test system: KM12 colon
LOX IMVI melanoma = test system: LOX IMVI melanoma
M14 melanoma = test system: M14 melanoma
MALME-3M melanoma = test system: MALME-3M melanoma
MCF7 breast = test system: MCF7 breast
MDA-MB-435 = test system: MDA-MB-435
MOLT-4 leukemia = test system: MOLT-4 leukemia
NCI-H23 lung = test system: NCI-H23 lung
NCI-H460 lung = test system: NCI-H460 lung
NCI-H522 lung = test system: NCI-H522 lung
NCI/ADR-RES ovarian = test system: NCI/ADR-RES ovarian
OVCAR-3 ovarian = test system: OVCAR-3 ovarian
OVCAR-4 ovarian = test system: OVCAR-4 ovarian
OVCAR-5 ovarian = test system: OVCAR-5 ovarian
OVCAR-8 ovarian = test system: OVCAR-8 ovarian
PC-3 prostate = test system: PC-3 prostate
RPMI-8226 leukemia = test system: RPMI-8226 leukemia
RXF 393 renal = test system: RXF 393 renal
SF-268 CNS = test system: SF-268 CNS
SF-295 CNS = test system: SF-295 CNS
SF-539 CNS = test system: SF-539 CNS
SK-MEL-2 melanoma = test system: SK-MEL-2 melanoma
SK-MEL-28 melanoma = test system: SK-MEL-28 melanoma
SK-MEL-5 melanoma = test system: SK-MEL-5 melanoma
SK-OV-3 ovarian = test system: SK-OV-3 ovarian
SN12C renal = test system: SN12C renal
SNB-19 CNS = test system: SNB-19 CNS
SNB-75 CNS = test system: SNB-75 CNS
SW-620 colon = test system: SW-620 colon
T-47D breast = test system: T-47D breast
TK-10 renal = test system: TK-10 renal
U251 CNS = test system: U251 CNS
UACC-257 melanoma = test system: UACC-257 melanoma
UO-31 renal = test system: UO-31 renal

## COc1cc(Nc2c(C#N)[n+]([O-])c3ccccc3[n+]2[O-])cc(OC)c1OC
786-0 renal
  TGI: 49.8 µM
A498 renal
  TGI: > 100 µM
A549 NSCLC
  TGI: > 100 µM
ACHN renal
  TGI: > 100 µM
BT-549 breast
  TGI: > 100 µM
CAKI-1 renal
  TGI: > 100 µM
CCRF-CEM leukemia
  TGI: > 100 µM
COLO 205 colon
  TGI: 28.7 µM
DU-145 prostate
  TGI: > 100 µM
EKVX NSCLC
  TGI: > 100 µM
HCC-2998 colon
  TGI: 86 µM
HCT-116 colon
  TGI: 29.9 µM
HCT-15 colon
  TGI: > 100 µM
HL-60(TB) leukemia
  TGI: > 100 µM
HOP-62 NSCLC
  TGI: > 100 µM
HOP-92 NSCLC
  TGI: > 100 µM
HS 578T breast
  TGI: > 100 µM
HT29 colon
  TGI: > 100 µM
K-562 leukemia
  TGI: > 100 µM
KM12 colon
  TGI: > 100 µM
LOX IMVI melanoma
  TGI: > 100 µM
M14 melanoma
  TGI: 36 µM
MALME-3M melanoma
  TGI: > 100 µM
MCF7 breast
  TGI: 59 µM
MDA-MB-435
  TGI: > 100 µM
MOLT-4 leukemia
  TGI: > 100 µM
NCI-H23 lung
  TGI: 38.2 µM
NCI-H460 lung
  TGI: > 100 µM
NCI-H522 lung
  TGI: > 100 µM
NCI/ADR-RES ovarian
  TGI: 51 µM
OVCAR-3 ovarian
  TGI: > 100 µM
OVCAR-4 ovarian
  TGI: > 100 µM
OVCAR-5 ovarian
  TGI: 54.7 µM
OVCAR-8 ovarian
  TGI: > 100 µM
PC-3 prostate
  TGI: > 100 µM
RPMI-8226 leukemia
  TGI: > 100 µM
RXF 393 renal
  TGI: > 100 µM
SF-268 CNS
  TGI: > 100 µM
SF-295 CNS
  TGI: > 100 µM
SF-539 CNS
  TGI: > 100 µM
SK-MEL-2 melanoma
  TGI: > 100 µM
SK-MEL-28 melanoma
  TGI: > 100 µM
SK-MEL-5 melanoma
  TGI: 54.1 µM
SK-OV-3 ovarian
  TGI: 67.4 µM
SN12C renal
  TGI: > 100 µM
SNB-19 CNS
  TGI: > 100 µM
SNB-75 CNS
  TGI: > 100 µM
SW-620 colon
  TGI: > 100 µM
T-47D breast
  TGI: 48.2 µM
TK-10 renal
  TGI: > 100 µM
U251 CNS
  TGI: > 100 µM
UACC-257 melanoma
  TGI: 67.2 µM
UO-31 renal
  TGI: > 100 µM
